Our source for the inhibition values is US12617771B2, “Diphenylpyrazole compound, and preparation method therefor and application thereof” (NORTHWEST A&F UNIVERSITY, priority 2021, dated 2026).

Common to all, as to format: biochemical
Conditions in all cases: read-out: 100 μM Inhibition rate %

In one assay the target is PxGSTε3 (Plutella xylostella, UniProt O77409). Kind of assay: Inhibition of PxGSTε3 recombinant protein. On the procedure: (§1) Experiment: 100 μL of PBS buffer (100 mM, pH 7.2) was taken and added to a 96-well plate, 1 μg of PxGSTs recombinant protein and an appropriate concentration of the compounds PXG1-PXG29 of the present invention were added to each well, after uniformly mixing, and allowed to stand at 30° C. for 10 min. Then 100 μL of PBS buffer (100 mM, pH 7.2) containing 1 mM CDNB and 1 mM GSH was successively added to each well. Immediately after mixing, the mixture was placed in a microplate reader to measure the absorbance at a wavelength of 340 nm (A340) once every 1 min, the measurement was continued for 5 min, the light absorption values of each measuring point were recorded and the inhibition rate in vitro of the compounds PXG1-PXG29 of the present invention with different concentrations against PxGSTs recombinant protein were calculated. Each group of assays was repeated three times, and PxGSTs recombinant protein inactivated at 100° C. for 5 min was used as negative control, and GTX was used as positive control. GraphPad Prism 5 software was used for analysis and calculation of IC50. Relative inhibition was calculated using the following formula:
(§2) [formula] • wherein, A340c is the change of A340 […] the control group, an A340t is the change of A340 within 5 minutes for the experimental group.

A further assay deals with PxGSTσ1 (Plutella xylostella, UniProt Q6F436). Kind of assay: Inhibition of PxGSTσ1 recombinant protein. Here is the method: as §1, §2
Chain of PxGSTσ1 (Q6F436 entry or part of it): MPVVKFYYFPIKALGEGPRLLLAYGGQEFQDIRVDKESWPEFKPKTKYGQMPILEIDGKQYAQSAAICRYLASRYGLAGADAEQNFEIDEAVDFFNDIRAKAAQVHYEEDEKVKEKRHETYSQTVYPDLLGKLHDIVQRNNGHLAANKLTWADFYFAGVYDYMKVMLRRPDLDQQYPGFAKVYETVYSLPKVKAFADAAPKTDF
The target in another assay is PxGSTσ2 (Plutella xylostella, UniProt Q6F443). Put plainly: Inhibition of PxGSTσ2 recombinant protein. On the procedure:
as §1, §2

The target in the next assay is PxGSTδ1 (Plutella xylostella, UniProt D7URW9). Kind of assay: Inhibition of PxGSTδ1 recombinant protein. On the procedure:
as §1, §2

Chain of PxGSTδ1 (D7URW9 entry or part of it): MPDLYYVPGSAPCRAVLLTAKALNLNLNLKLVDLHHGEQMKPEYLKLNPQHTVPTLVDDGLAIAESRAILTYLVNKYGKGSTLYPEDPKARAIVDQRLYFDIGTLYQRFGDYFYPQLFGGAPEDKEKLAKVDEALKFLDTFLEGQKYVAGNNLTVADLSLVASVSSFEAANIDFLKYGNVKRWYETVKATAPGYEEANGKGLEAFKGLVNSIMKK
Chain of PxGSTε3 (O77409 entry or part of it): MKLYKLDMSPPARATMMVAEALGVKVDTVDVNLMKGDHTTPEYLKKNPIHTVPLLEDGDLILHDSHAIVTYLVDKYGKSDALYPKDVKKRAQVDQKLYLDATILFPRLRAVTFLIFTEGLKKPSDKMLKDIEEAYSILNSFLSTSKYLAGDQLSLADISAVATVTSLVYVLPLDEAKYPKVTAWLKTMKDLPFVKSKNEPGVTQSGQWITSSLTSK
Chain of PxGSTσ2 (Q6F443 entry or part of it): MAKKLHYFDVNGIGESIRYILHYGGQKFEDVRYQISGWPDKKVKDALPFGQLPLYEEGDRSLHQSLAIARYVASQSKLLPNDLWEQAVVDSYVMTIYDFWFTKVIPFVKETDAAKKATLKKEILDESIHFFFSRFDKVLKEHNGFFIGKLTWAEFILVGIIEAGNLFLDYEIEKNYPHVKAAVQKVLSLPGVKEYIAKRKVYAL

As to `O=C(NNC(=O)c1cc(-c2ccccc2)nn1-c1ccccc1)c1ccc(=O)[nH]n1` [PXG27, N′-(1,3-diphenyl-1H-pyrazol-5-yl-carbonyl)-6-oxo-1,6-dihydropyridazin-3-yl-carbohydrazide], the inhibition at 100 µM on PxGSTε3 was 17.6%; at PxGSTσ1, 25.1%; on PxGSTσ2, 42.4%; at PxGSTδ1, 41.7%.
`CCC1(C)NC(=O)N(NC(=O)c2cc(-c3ccccc3)nn2-c2ccccc2)C1=O` (centres unmarked) [PXG13, N-(4-ethyl-4-methyl-2,5-dioxaimidazolin-1-yl)-1,3-diphenyl-1H-pyrazol-5-yl-carboxamide]: the inhibition at 100 µM at PxGSTε3 came out at 18.4%; at PxGSTσ1, 34.2%; on PxGSTσ2, 22.8%; at PxGSTδ1, 14.1%.
As for `O=C(NNC(=O)c1cc(-c2ccc(Cl)cc2)nn1-c1ccccc1)c1ccccn1` [PXG20, N′-[3-(4-chlorophenyl)-1-phenyl-1H-pyrazol-5-yl-carbonyl]pyridin-2-yl-carbohydrazide], the inhibition at 100 µM is -15.7% at PxGSTε3, 71.8% at PxGSTσ1, 29.6% on PxGSTσ2 and 23% on PxGSTδ1.
As for `O=C(NNC(=O)c1cc(-c2ccc(Cl)cc2)nn1-c1ccccc1)c1cccnc1` [PXG7, N′-[3-(4-chlorophenyl)-1-phenyl-1H-pyrazol-5-yl-carbonyl]pyridin-3-yl-carbohydrazide], the inhibition at 100 µM came to 5.93% on PxGSTε3, 35.1% at PxGSTσ1, 20.1% at PxGSTσ2 and 55.7% on PxGSTδ1.
Taken in the same sequence, the figures for `COc1ccc(C2(C)NC(=O)N(NC(=O)c3cc(-c4ccccc4)nn3-c3ccccc3)C2=O)cc1` (centres unmarked) [PXG14, N-[4-(4-methoxyphenyl)-4-methyl-2,5-dioxaimidazolin-1-yl]-1,3-diphenyl-1H-pyrazol-5-yl-carboxamide] were 15.3%, 52.2%, 36.4% and 14.9%.
As for `O=C(NNC(=O)[C@@H]1COc2ccccc2O1)c1cc(-c2ccccc2)nn1-c1ccccc1` [PXG8, (2S)-N′-(1,3-diphenyl-1H-pyrazol-5-yl-carbonyl)-2,3-dihydro-1,4-benzodioxin-2-yl-carbohydrazide], the inhibition at 100 µM on PxGSTε3 is -3.3%; on PxGSTσ1 it was 37.8%; at PxGSTσ2, 42.4%; at PxGSTδ1, 69.5%.
Taken in the same sequence, the figures for `O=C(NNC(=O)c1cc(-c2ccccc2)nn1-c1ccccc1)c1cccnc1O` [PXG25, N′-(1,3-diphenyl-1H-pyrazol-5-yl-carbonyl)-2-hydroxypyridin-3-yl-carbohydrazide] were 2.07%, -1.47%, 15.3% and 23.8%.
On to `CCn1c(C)nc2cc(C(=O)NNC(=O)c3cc(-c4ccccc4)nn3-c3ccccc3)ccc21` [PXG21, N′-(1-ethyl-2-methyl-1H-1,3-benzodiazol-5-yl-carbonyl)-1,3-diphenyl-1H-pyrazol-5-yl-carbohydrazide], for which the inhibition at 100 µM is -2.67% at PxGSTε3, 44.9% at PxGSTσ1, 11.7% at PxGSTσ2 and 7.82% at PxGSTδ1.
As for `COc1cccc(C2(C)NC(=O)N(NC(=O)c3cc(-c4ccccc4)nn3-c3ccccc3)C2=O)c1` (centres unmarked) [PXG17, N-[4-(3-methoxyphenyl)-4-methyl-2,5-dioxaimidazolin-1-yl]-1,3-diphenyl-1H-pyrazol-5-yl-carboxamide], the inhibition at 100 µM on PxGSTε3 was determined as 4.43%; on PxGSTσ1, 48.9%; on PxGSTσ2, 43.9%; at PxGSTδ1, 2.22%.
Take `O=C(NNC(=O)C1CCCC1)c1cc(-c2ccccc2)nn1-c1ccccc1` [PXG28, N′-(1,3-diphenyl-1H-pyrazol-5-yl-carbonyl) cyclopentyl carbohydrazide]: the inhibition at 100 µM at PxGSTε3 came out at 0.96%; on PxGSTσ1, 19.5%; at PxGSTσ2, 23.4%; on PxGSTδ1, 70.9%.
On to `CCOC(=O)NNC(=O)c1cc(-c2ccccc2)nn1-c1ccccc1` [PXG24, N′-(ethoxycarbonyl)-1,3-diphenyl-1H-pyrazol-5-yl-carbohydrazide], for which the inhibition at 100 µM stood at 28.3% at PxGSTε3, 14.9% on PxGSTσ1, 19.7% on PxGSTσ2 and 23.1% on PxGSTδ1.
